Source: patent publication US10287269B2, “Pyrazolyl pyrimidinone compounds as PDE2 inhibitors” (Merck Sharp & Dohme Corp., priority 2015, dated 2019)

System: other PDE isoforms
Assay: not given
Conditions: reported in Brandon et al. 2007; cited from earlier work

| Structure (SMILES) | potency at other PDE isoforms |
| --- | --- |
| COc1ccc(Cc2nn3c([C@@H](CCCc4ccccc4)[C@@H](C)O)nc(C)c3c(=O)[nH]2)cc1OC [Bay 60-7550] | significant potency |

System: not given
Assay: not given
Conditions: reported in Brandon et al. 2007; cited from earlier work

| Structure (SMILES) | brain penetration |
| --- | --- |
| COc1ccc(Cc2nn3c([C@@H](CCCc4ccccc4)[C@@H](C)O)nc(C)c3c(=O)[nH]2)cc1OC [Bay 60-7550] | limited brain penetration |

Target: T1, human PDE2A1 (Homo sapiens, UniProt O00408)
T1 construct: GST; purchased BPS Bioscience (San Diego, Calif.) 60020; host or cells: insect cells
Assay: PDE2 IMAP FP inhibition assay, human enzyme (PDE selectivity panel format)
Type: biochemical
Conditions: Lab A; read-out: Human PDE2 Ki (nM) Lab A
Experimental: Selectivity for PDE2, as compared to other PDE families, was assessed using the IMAP® technology. Human PDE10A2 enzyme was prepared from cytosolic fractions of transiently transfected HEK cells. All other PDE's were GST Tag human enzyme expressed in insect cells and were obtained from BPS Bioscience (San Diego, Calif.): PDE1A (Cat#60010), human PDE2A1 (Cat#60020), PDE3A (Cat#60030), PDE4A1A (Cat#60040), PDE5A1 (Cat#60050), PDE6C (Cat#60060), PDE7A (Cat#60070), PDE8A1 (Cat#60080), PDE9A2 (Cat#60090), PDE11A4 (Cat#60110).
Assays for PDE 1 through 11 were performed in parallel at room temperature in 384-well microtiter plates with an incubation volume of 20.2 μL. Solutions of test compounds were prepared in DMSO and serially diluted with DMSO to yield 30 μL of each of ten solutions differing by 3-fold in concentration, at 32 serial dilutions per plate. […] A Labcyte POD 810 (Labcyte, Sunnyvale, Calif.) was used to dispense 200 nL from each well of the titration plate to make eleven copies of the assay plate for each titration, one copy for each PDE enzyme. A solution of each enzyme (dilution from aliquots, sufficient to produce 20% substrate conversion) and a separate solution of FAM-labeled cAMP or FAM-labeled cGMP from Molecular Devices (Sunnyvale, Calif., product # R7506 or cGMP#R7508), at a final concentration of 50 nM were made in the assay buffer (10 mM Tris HCl, pH 7.2, 10 mM MgCl2, 0.05% NaN3 0.01% Tween-20, and 1 mM DTT). Note that the substrate for PDE2 is 50 nM FAM cAMP containing 1000 nM of cGMP. The enzyme and the substrate were then added to the assay plates in two consecutive additions of 10 μL and then shaken to mix. The reaction was allowed to proceed at room temperature for 60 minutes. A binding solution was then made from the kit components, comprised of 80% Solution A, 20% Solution B and binding reagent at a volume of 1/600 the total binding solution. The enzymatic reaction was stopped by addition of 60 μL of the binding solution to each well of the assay plate. The plates were sealed and shaken for 10 seconds. The plates were incubated at room temperature for one hour, then the parallel and perpendicular fluorescence was measured using a Tecan Genios Pro plate reader (Tecan, Switzerland). The apparent inhibition constants for the compounds against all 11 PDE's was determined from the parallel and perpendicular fluorescent readings as described for PDE10 FP assay using the following apparent KM values for each enzyme and substrate combination: PDE1A (FAM cGMP) 70 nM, human PDE2A1 (FAM cAMP) 10,000 nM, PDE3A (FAM cAMP) 50 nM, PDE4A1A (FAM cAMP) 1500 nM, PDE5A1 (FAM cGMP) 400 nM, PDE6C (FAM cGMP) 700 nM, PDE7A (FAM cAMP) 150 nM, PDE8A1 (FAM cAMP) 50 nM, PDE9A2 (FAM cGMP) 60 nM, PDE10A2 (FAM cAMP) 150 nM, PDE11A4 (FAM cAMP) 1000 nM. The intrinsic PDE2 inhibitory activity of a compound which may be used in accordance with the present invention may be determined by these assays. […]

T1 sequence (O00408 1-920 isoform O00408-2): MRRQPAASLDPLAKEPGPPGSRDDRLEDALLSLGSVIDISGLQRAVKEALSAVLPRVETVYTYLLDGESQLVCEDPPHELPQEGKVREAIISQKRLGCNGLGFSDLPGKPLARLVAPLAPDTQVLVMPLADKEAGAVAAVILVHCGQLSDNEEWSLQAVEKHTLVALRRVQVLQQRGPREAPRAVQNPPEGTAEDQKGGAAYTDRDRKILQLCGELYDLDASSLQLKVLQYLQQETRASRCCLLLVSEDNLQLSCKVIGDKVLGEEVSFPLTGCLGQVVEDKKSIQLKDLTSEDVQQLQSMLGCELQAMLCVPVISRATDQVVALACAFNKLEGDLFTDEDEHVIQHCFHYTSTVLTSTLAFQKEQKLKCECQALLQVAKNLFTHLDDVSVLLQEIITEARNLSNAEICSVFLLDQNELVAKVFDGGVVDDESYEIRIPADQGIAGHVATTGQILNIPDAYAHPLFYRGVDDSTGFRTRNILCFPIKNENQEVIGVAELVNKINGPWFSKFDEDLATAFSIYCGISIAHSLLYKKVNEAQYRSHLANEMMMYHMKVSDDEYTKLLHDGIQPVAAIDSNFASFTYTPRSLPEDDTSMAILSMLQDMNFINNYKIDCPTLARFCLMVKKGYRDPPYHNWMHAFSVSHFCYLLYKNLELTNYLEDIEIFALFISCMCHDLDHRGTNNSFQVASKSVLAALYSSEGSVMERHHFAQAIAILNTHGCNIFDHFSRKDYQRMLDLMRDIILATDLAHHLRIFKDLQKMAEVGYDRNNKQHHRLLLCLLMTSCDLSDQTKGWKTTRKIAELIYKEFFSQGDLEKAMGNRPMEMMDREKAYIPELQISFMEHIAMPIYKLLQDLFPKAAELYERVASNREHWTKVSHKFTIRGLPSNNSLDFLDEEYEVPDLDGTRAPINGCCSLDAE

| Structure (SMILES) | Ki [nM] |
| --- | --- |
| Cc1nc(-c2cnn(C(C)c3ccc(C4CC4)cc3Cl)c2)cc(=O)[nH]1 (single isomer, unassigned) [Example 108, (S)- or (R)-6-(1-(1-(2-chloro-4-cyclopropylphenyl)ethyl)-1H-pyrazol-4-yl)-2-methylpyrimidin-4(3H)-one] | 358 |
| Cc1nc(-c2cnn(C(CO)c3ccc(C(F)(F)F)cc3F)c2)cc(=O)[nH]1 (single isomer, unassigned) [Example 109, (R)- or (S)-6-(1-(1-(2-fluoro-4-(trifluoromethyl)phenyl)-2-hydroxyethyl)-1H-pyrazol-4-yl)-2-methylpyrimidin-4(3H)-one] | 27.5 |
| Cc1nc(-c2cnn(C(CO)c3ccc(C(F)(F)F)cc3F)c2)cc(=O)[nH]1 (single isomer, unassigned) [Example 110, (S)- or (R)-6-(1-(1-(2-fluoro-4-(trifluoromethyl)phenyl)-2-hydroxyethyl)-1H-pyrazol-4-yl)-2-methylpyrimidin-4(3H)-one] | 299 |
| CCc1ccc(C(CO)n2cc(-c3cc(=O)[nH]c(C)n3)cn2)c(F)c1 (single isomer, unassigned) [Example 111, (R)- or (S)-6-(1-(1-(4-ethyl-2-fluorophenyl)-2-hydroxyethyl)-1H-pyrazol-4-yl)-2-methylpyrimidin-4(3H)-one] | 42.5 |
| CCc1ccc(C(CO)n2cc(-c3cc(=O)[nH]c(C)n3)cn2)c(F)c1 (single isomer, unassigned) [Example 112, (S)- or (R)-6-(1-(1-(4-ethyl-2-fluorophenyl)-2-hydroxyethyl)-1H-pyrazol-4-yl)-2-methylpyrimidin-4(3H)-one] | 438 |
| Cc1nc(-n2cc(C(C)(O)c3ccc(C(F)(F)F)cc3Cl)cn2)cc(=O)[nH]1 (single isomer, unassigned) [Example 118, (S)- or (R)-6-(4-(1-(2-chloro-4-(trifluoromethyl)phenyl)-1-hydroxyethyl)-1H-pyrazol-1-yl)-2-methylpyrimidin-4(3H)-one] | 47.8 |
| CCc1ccc(C(CO)c2cnn(-c3cc(=O)[nH]c(C)n3)c2)c(Cl)c1 (single isomer, unassigned) [Example 120, (R)- or (S)-6-(4-(1-(2-chloro-4-ethylphenyl)-2-hydroxyethyl)-1H-pyrazol-1-yl)-2-methylpyrimidin-4(3H)-one] | 321 |
| Cc1nc(-c2cnn(C(CO)c3ccc(C(F)(F)F)cc3Cl)c2)cc(=O)[nH]1 (single isomer, unassigned) [Example 123, (S)- or (R)-6-(1-(1-(2-chloro-4-(trifluoromethyl)phenyl)-2-hydroxyethyl)-1H-pyrazol-4-yl)-2-methylpyrimidin-4(3H)-one] | 6.5 |
| CCc1ccc(C(C(=O)OC)n2cc(-c3cc(=O)[nH]c(C)n3)cn2)c(Cl)c1 (stereo not drawn) [Example 114, methyl 2-(2-chloro-4-ethylphenyl)-2-(4-(2-methyl-6-oxo-1,6-dihydropyrimidin-4-yl)-1H-pyrazol-1-yl)acetate] | 1820 |

Results, then the compound that gave them:

| Ki [nM] | Structure (SMILES) |
| --- | --- |
| 1970 | COC(=O)C(c1ccc(C(F)(F)F)cc1F)n1cc(-c2cc(=O)[nH]c(C)n2)cn1 (stereo not drawn) [Example 113, methyl 2-(2-fluoro-4-(trifluoromethyl)phenyl)-2-(4-(2-methyl-6-oxo-1,6-dihydropyrimidin-4-yl)-1H-pyrazol-1-yl)acetate] |
| 616 | Cc1nc(-c2cnn(C(CO)c3ccc(C(F)(F)F)cc3Cl)c2)cc(=O)[nH]1 (single isomer, unassigned) [Example 122, (R)- or (S)-6-(1-(1-(2-chloro-4-(trifluoromethyl)phenyl)-2-hydroxyethyl)-1H-pyrazol-4-yl)-2-methylpyrimidin-4(3H)-one] |
| 537 | CCc1ccc(C(CO)c2cnn(-c3cc(=O)[nH]c(C)n3)c2)c(F)c1 (single isomer, unassigned) [Example 116, (S)- or (R)-6-(4-(1-(4-ethyl-2-fluorophenyl)-2-hydroxyethyl)-1H-pyrazol-1-yl)-2-methylpyrimidin-4(3H)-one] |
| 163 | CCc1ccc(C(CO)c2cnn(-c3cc(=O)[nH]c(C)n3)c2)c(F)c1 (single isomer, unassigned) [Example 115, (R)- or (S)-6-(4-(1-(4-ethyl-2-fluorophenyl)-2-hydroxyethyl)-1H-pyrazol-1-yl)-2-methylpyrimidin-4(3H)-one] |
| 16.7 | CCc1ccc(C(C)(O)c2cnn(-c3cc(=O)[nH]c(C)n3)c2)c(Cl)c1 (stereo not drawn) [Example 119, 6-(4-(1-(2-chloro-4-ethylphenyl)-1-hydroxyethyl)-1H-pyrazol-1-yl)-2-methylpyrimidin-4(3H)-one] |
| 8.4 | CCc1ccc(C(CO)c2cnn(-c3cc(=O)[nH]c(C)n3)c2)c(Cl)c1 (single isomer, unassigned) [Example 121, (S)- or (R)-6-(4-(1-(2-chloro-4-ethylphenyl)-2-hydroxyethyl)-1H-pyrazol-1-yl)-2-methylpyrimidin-4(3H)-one] |
| 4.4 | Cc1nc(-n2cc(C(C)(O)c3ccc(C(F)(F)F)cc3Cl)cn2)cc(=O)[nH]1 (single isomer, unassigned) [Example 117, (R)- or (S)-6-(4-(1-(2-chloro-4-(trifluoromethyl)phenyl)-1-hydroxyethyl)-1H-pyrazol-1-yl)-2-methylpyrimidin-4(3H)-one] |
